What all share (assay type): in vivo
The test system of assay [1] is southern root-knot nematode (Meloidogyne incognita). Description: Test on effects against southern root-knot nematode: treated contaminated soil, cucumber pot test (Test Example 1 and Comparative Test). The arrangement: key: 0: No knot formed on the root at all; 1: Knots formed to a slight degree; 2: Knots formed to a moderate degree; 3: Knots formed to a heavy degree; 4: Knots formed to the heaviest degree. How it is done:
The treated soil was put into a pot, three cucumber seeds were sown, and the pot was placed in a greenhouse. Two to three weeks after the sowing of the cucumber seeds, the root knot index was determined based on the degree of formation of root knots shown in Table 5. Each composition containing Compound No. […]-192 or B-196 at a concentration of 400 ppm and the composition containing Compound No. […] [table] […] Root knot index of 2 corresponds to a state where the proportion of healthy roots is 50% or less to the entire roots, and indicates control effects to such an extent that cucumber as a crop plant to be tested cannot healthily grow.

Assay [2] concerns soybean cyst nematode (Heterodera glycines). Kind of assay: Test on effects against soybean cyst nematode: treated contaminated soil, soybean pot test (Test Example 3). Also on record: key: 0: No parasitic cyst observed on the roots at all; 1: Parasitic cyst observed to a slight degree; 2: Parasitic cyst observed to a moderate degree; 3: Parasitic cyst observed to a heavy degree; 4: Parasitic cyst observed densely on the entire roots. Conditions: 10 ml poured to 200 ml contaminated soil, about one month after sowing. How it is done: . The treated soil was put into a pot, three soybean seeds were sown, and the pot was placed in a greenhouse. About one month after the sowing of the soybean seeds, the parasite index was determined based on the cyst parasite level on the roots shown in Table 7.

The subject of assay [3] is Cobb root-lesion nematode (Pratylenchus penetrans). Kind of assay: Test on effects against Cobb root-lesion nematode: treated contaminated soil, burdock pot test (Test Example 2). The following applies: 800 ppm, 10 ml poured to 200 ml contaminated soil, about one month after sowing. The arrangement: key: 0: No injury; 1: Slight injury; 2: Moderate injury; 3: Heavy injury; 4: Heaviest injury. How it is done: . The treated soil was put into a pot, three burdock seeds were sown, and the pot was placed in a greenhouse. About one month after the sowing of the burdock seeds, the injury index was determined based on the root injury level shown in Table 6.

Where [4] appears, read: 400 ppm, 10 ml poured to 200 ml contaminated soil, cucumber, two to three weeks after sowing.
Setting [5] is: Comparative Test, active ingredient concentration 50 ppm, otherwise as Test Example 1 (cucumber).

`O=CNN=C(c1ccc(F)cc1)C1(n2cnc(C(F)(F)F)n2)CC1` (single isomer, unassigned) [B-106]: in assay [1] (setting [4]), the root knot index came to 1. In addition, the parasite index in assay [2] (400 ppm) came to 1.
In assay [1] (setting [4]), `CC(C)(C(=NNC=O)c1ccc(F)cc1)n1ccc(C(F)(F)F)n1` [A-107] displayed a root knot index of 1. For the same compound, the parasite index in assay [2] (800 ppm) is reported as 1.
The compound `CN(C=O)N=C(c1ccccc1)C1(n2cnc(C(F)(F)F)n2)CC1` [B-6] had a parasite index in assay [2] (800 ppm) of 1.
`CC(C)(C(=NNC=O)c1cccc(F)c1)n1ccc(Br)n1` [A-279]: in assay [1] (setting [4]), the root knot index is given as 1. In assay [2] (800 ppm), this compound showed a parasite index of 1.
Turning to `Cc1ccccc1C(=NNC=O)C1(n2ccc(C(F)(F)F)n2)CC1` [B-196], the root knot index in assay [1] (setting [4]) was 1. The parasite index in assay [2] (800 ppm) was 1.
The compound `Cc1cccc(C(=NNC=O)C(C)(C)n2cnc(C(F)(F)F)n2)c1` [A-323, N′-(2-methyl-1-(3-methylphenyl)-2-(3-trifluoromethyl-1H-triazol-1-yl)propylidene) formhydrazide] showed a root knot index in assay [1] ([…], cucumber, two to three weeks after sowing) of 1. The compound further returned a parasite index in assay [2] (800 ppm) of 1.
As to `COCN(C=O)N=C(c1ccccc1)C1(n2cnc(C(F)(F)F)n2)CC1` [B-24], the parasite index in assay [2] (800 ppm) turned out to be 1.
Regarding `CC(C)(C(=NNC=O)c1cccc2c1OC(F)(F)O2)n1cnc(C(F)(F)F)n1` [A-411], in assay [1] (setting [4]), the root knot index stood at 1. Also, in assay [2] (800 ppm), the parasite index worked out at 1.
In turn, `CC(C)(C(=NNC=O)c1ccccc1OC(F)(F)F)n1cnc(C(F)(F)F)n1` [A-271] displayed a root knot index in assay [1] (setting [4]) of 1. Further, the parasite index in assay [2] (800 ppm) was determined as 1.
As for `COCN(C=O)N=C(c1ccc(F)cc1)C(C)(C)n1ccc(C(F)(F)F)n1` [A-109], the parasite index in assay [2] (800 ppm) worked out at 1.
In assay [1] (setting [4]), `CC(C)(C(=NNC=O)c1cccc2c1OC(F)(F)O2)n1ccc(C#N)n1` [A-416] gave a root knot index of 1. Moreover, the parasite index in assay [2] (800 ppm) is listed as 1.
In assay [1] (setting [4]), `Cc1cccc(C(=NNC=O)C(C)(C)n2ccc(C(F)(F)F)n2)c1` [A-322] showed a root knot index of 1. Further, in assay [2] (800 ppm), the parasite index was 1.
On to `O=CNN=C(c1ccccc1)C1(n2cnc(C(F)(F)F)n2)CC1` (single isomer, unassigned) [B-3], for which the root knot index in assay [1] (setting [4]) is recorded as 1. In assay [2] (800 ppm), this compound had a parasite index of 1.
For `CC(C)(C(=NNC=O)c1ccccc1C(F)(F)F)n1ccc(C(F)(F)F)n1` [A-260], in assay [1] (setting [4]), the root knot index worked out at 1. Moreover, the parasite index in assay [2] (400 ppm) was found to be 1.
For `CN(C=O)N=C(c1ccc(Cl)cc1)C(C)(C)n1ccc(C(F)(F)F)n1` [A-91], the parasite index in assay [2] (800 ppm) was found to be 1.
For the compound `CC(C)(C(=NNC=O)c1ccccc1)n1ccc(C(F)(F)F)n1` [A-1, N′-(2-methyl-1-phenyl-2-(3-trifluoromethyl-1H-pyrazol-1-yl)propylidene) formhydrazide], the root knot index in assay [1] (setting [4]) and in assay [1] (setting [5]) was 1 in each case. This compound also had an injury index in assay [3] of 1. The same compound showed a parasite index in assay [2] (800 ppm) of 1.
With `CC(C)(C(=NNC=O)c1cccc(Cl)c1Cl)n1cnc(C(F)(F)F)n1` [A-333], in assay [1] (setting [4]), the root knot index is recorded as 1. The compound further had a parasite index in assay [2] (800 ppm) of 1.
Take `O=CNN=C(c1ccccc1)C1(n2ccc(C(F)(F)F)n2)CC1` [B-1, N′-(phenyl(1-(3-trifluoromethyl-1H-pyrazol-1-yl)cyclopropyl)methylene) formhydrazide]: the root knot index in assay [1] (setting [4]) came to 1. This compound also returned an injury index in assay [3] of 1. Besides, the parasite index in assay [2] (800 ppm) amounted to 1.
`CC(C)(C(=NNC=O)c1cccc(F)c1)n1ccc(C(F)(F)F)n1` [A-274] showed a root knot index in assay [1] (setting [4]) of 1. Besides, the parasite index in assay [2] (800 ppm) was determined as 1.
`CC(C)(C(=NNC=O)c1ccc(Cl)cc1)n1ccc(C(F)(F)F)n1` [A-89] registered a root knot index in assay [1] (setting [4]) of 1. Besides, in assay [2] (800 ppm), the parasite index was found to be 1.
With `COc1cccc(C(=NNC=O)C(C)(C)n2ccc(C(F)(F)F)n2)c1` [A-328], in assay [1] (setting [4]), the root knot index stood at 1. Moreover, the parasite index in assay [2] (800 ppm) worked out at 1.
Take `CC(C)(C(=NNC=O)c1cccc(Cl)c1)n1ccc(C(F)(F)F)n1` [A-318]: the root knot index in assay [1] (setting [4]) and in assay [1] (setting [5]) was 1 each time. Also, the injury index in assay [3] amounted to 1. In addition, in assay [2] (800 ppm), the parasite index amounted to 1.
In the case of `CC(C)(C(=NNC=O)c1ccccc1)n1cnc(C(F)(F)F)n1` [A-2], the root knot index in assay [1] (setting [4]) is given as 1; in assay [1] (setting [5]), 0. Moreover, in assay [2] (800 ppm), the parasite index stood at 1.
`CC(C)(C(=NNC=O)c1cccc(Cl)c1)n1cnc(C(F)(F)F)n1` [A-319] gave a root knot index in assay [1] (setting [4]) of 1. For the same compound, in assay [2] (800 ppm), the parasite index is listed as 1.
In assay [1] (setting [4]), `CC(C)(C(=NNC=O)c1cc(F)ccc1Cl)n1cnc(C(F)(F)F)n1` [A-352] came in with a root knot index of 1. The compound also had a parasite index in assay [2] (800 ppm) of 1.

For the origin of these results see US20240334931A1, “NEMATICIDAL COMPOSITION” (ISHIHARA SANGYO KAISHA, LTD., priority 2021, published 2024).
